According to patent US7816074B2, “α4 β2 δGABA-A receptors as a strategy for PMS and alcoholism” (priority 2003, dated 2010):

Tested on: female Long Evans rats
Test: Acoustic startle response (ASR)
Assay type: in vivo, rat
Conditions: for decrease of peak ASR: diestrous and sham controls
Method: Animals were tested in a stabilimeter device (SR-Lab Startle Response System, San Diego Instruments, Inc., San Diego, Calif.) that permits vertical movement of a Plexiglas platform contained within a lit, well-ventilated sound-attenuating chamber (26). The amplitude of movement is detected by a piezoelectric device with a voltage output proportional to platform displacement. The analog output of the accelerometer is then amplified and digitized before computer analysis. Five minutes after i.p. administration of 10% ethanol (0.05-1.6 g/kg) or saline vehicle (1.5 ml volume) or 25 minutes after 4,5,6,7-tetrahydroisoxazolo[5,4-c]pyridin-3-ol injection (3 mg/kg, i.p.), animals were placed in the chamber for a 5 minutes acclimation period. […] Four acoustic stimuli (116 dB, 40 ms duration) were then presented at random intervals once every 10-15 seconds via a white-noise generator through speakers positioned on either side of the cage. […] For each acoustic stimulus, the amplitude and integrated response (amplitude and duration) were determined and normalized to the weight of the animal. Values for the integrated response after administration of each dose of ethanol or 4,5,6,7-tetrahydroisoxazolo[5,4-c]pyridin-3-ol were averaged and expressed as a fraction of the saline control average for the indicated treatment (progesterone withdrawal versus control) group in order to minimize variability between groups. […] It is also routinely used to assess behavioral excitability after withdrawal from BDZs and ethanol (73).
Animals were tested in a stabilimeter device (SR-Lab Startle Response System, San Diego Instruments, Inc.) that permitted vertical movement of a Plexiglas cage contained within a lit, well-ventilated, sound-attenuating chamber. The amplitude of movement was detected by a piezoelectric device with a voltage output proportional to cage displacement. The analog output of the accelerometer was amplified and digitized before computer analysis (15). Five minutes following intraperitoneal administration of alcohol (0.2 or 0.4 g/kg) or saline vehicle (1.5 ml volume), animals were placed in the chamber for 5 a minute acclimation period. Five acoustic stimuli (116 dB, 40 msec duration) were then presented once every 10-15 seconds via a white-noise generator through speakers positioned on either side of the cage. For each acoustic stimulus, the integrated response (amplitude and duration) was averaged across a 100 msec post-stimulus time period and the response latency determined. Both values were normalized to the weight of the animal. Values for the integrated response for the first noise stimulus following administration of each dose of alcohol were averaged and expressed as a fraction of the saline control average for the indicated treatment (P Wd versus control) group. […] It is routinely used to assess behavioral excitability following withdrawal from benzodiazepiness (48) and alcohol (73), and is known to be modified by GABA modulators, such as diazepam (11), and by local infusion of excitatory compounds into dorsal hippocampus (85).

CCO [ethanol]
effect on acoustic startle response (alcohol 0.2-0.4 g/kg in vivo, after progesterone withdrawal (Example III)): decreased the acoustic startle response
effect on ASR (ethanol 0.05 g/kg i.p., P withdrawal and diestrous control animals): equally ineffective
attenuation of average peak and integrated startle responses (ethanol 0.2-0.4 g/kg i.p., after P withdrawal): about 70%
attenuation of startle responses (ethanol 0.2-0.4 g/kg i.p., diestrous and sham control animals): not observed
decrease of peak ASR (ethanol 0.2 g/kg): ineffective
effect on ASR (ethanol 0.8-1.2 g/kg i.p., P withdrawn animals): ineffective
effect on ASR (ethanol 0.8-1.2 g/kg i.p., both control groups): significantly decreased
decrease of peak ASR (ethanol 0.8 g/kg): effective
effect on ASR (ethanol 1.6 g/kg i.p., P withdrawal and diestrous control animals): decreased the ASR
